Laboratory results: patent publication US20250034186A1, “ANTIVIRAL COMPOUNDS” (priority 2020, published 2025)

Experiments:
HRV16 = HRV16 HeLa EC50; type: cell-based, human rhinovirus; details: Human rhinovirus sp., HRV16; H1-HeLa cells, 96 h, 33° C.
Protocol: H1-HeLa cells, cultured in complete DMEM medium containing 10% heat-inactivated FBS and 1% Penicillin/Streptomycin, were seeded in 96 well plates at 3000 cells/well one day prior to compound dosing and infection. The antiviral activity of each compound was measured in triplicate. Compounds were added directly to the cell cultures in serial 3-fold dilutions using the HP300 digital dispenser (Hewlett Packard, Palo Alto, CA) immediately prior to infection. The plates were transferred to BSL-2 containment and the appropriate dilution of virus stock, previously determined by titration and prepared in cell culture media, was added to test plates containing cells and serially diluted compounds. Each plate included 6 wells of infected untreated cells and 6 wells of uninfected cells that served as 0% and 100% virus inhibition control, respectively. Following the infection, test plates were incubated for 96 h in a tissue culture incubator set to 33° C./5% CO2. Following incubation, the H1-HeLa cells were removed from incubation and allowed to equilibrate to 25° C. Cell viability was determined by removing 100 μL of culture medium and adding 100 μL of Cell-Titer Glo viability reagent. The mixtures were incubated on a shaker for 10 minutes at 25° C., and the luminescence signal was quantified on an Envision luminescence plate reader.

RSV strain A2 = test: RSV HEp-2 EC50, infectious cytopathic cell protection assay; type: cell-based; details: human respiratory syncytial virus, 96 h; RSV A2 in HEp-2 cells, 4 days, Cell TiterGlo
Protocol: Antiviral activity against RSV is determined using an infectious cytopathic cell protection assay in HEp-2 cells. In this assay, compounds inhibiting viral infection and/or replication produce a cytoprotective effect against the virus-induced cell killing that can be quantified using a cell viability reagent. The techniques used here are novel adaptations of methods described in published literature (Chapman et al., Antimicrob Agents Chemother. 2007, 51(9):3346-53.).
HEp-2 cells are obtained from ATCC (Manassas, VI) and maintained in MEM media supplemented with 10% fetal bovine serum and penicillin/streptomycin. Cells are passaged twice a week and kept at subconfluent stage. Commercial stock of RSV strain A2 (Advanced Biotechnologies, Columbia, MD) is titered before compound testing to determine the appropriate dilution of the virus stock that generates desirable cytopathic effect in HEp-2 cells.
For antiviral tests, HEp-2 cells are grown in large cell culture flasks to near confluency but not fully so. The compounds to be tested are prediluted in DMSO in 384-well compound dilution plates, either in an 8 or 40 sample per plate standardized dose response format. 3-fold serial dilution increments of each test compound are prepared in the plates and test samples are transferred via acoustic transfer apparatus (Echo, Labcyte) at 100 nL per well into cell culture assay 384-well plates. Each compound dilution is transferred in single or quadruplicate samples into dry assay plates, which are stored until assay is ready to go. The positive and negative controls are laid out in opposite on ends of the plate in vertical blocks (1 column).
Subsequently, an infectious mixture is prepared using an appropriate dilution of virus stock previously determined by titration with cells at a density of 50,000/mL and 20 μL/well is added to test plates w/compounds via automation (uFlow, Biotek). Each plate includes negative and positive controls (16 replicates each) to create 0% and 100% virus inhibition standards, respectively. Following the infection with RSV, testing plates are incubated for 4 days in a 37° C. cell culture incubator. After the incubation, a cell viability reagent, Cell TiterGlo (Promega, Madison, WI) is added to the assay plates, which are incubated briefly, and a luminescent readout is measured (Envision, Perkin Elmer) in all the assay plates. The RSV-induced cytopathic effect, percentage inhibition, is determined from the levels of remaining cell viability. […] Various potent anti-RSV tool compounds are used as positive controls for antiviral activity.

HRV14 = HRV14 HeLa EC50; type: cell-based, human rhinovirus; details: Human rhinovirus sp., HRV14; H1-HeLa cells, 96 h, 37° C.
Protocol: (§1) H1-HeLa cells, cultured in complete RPMI 1640 medium containing 10% heat-inactivated FBS and 1% Penicillin/Streptomycin, were seeded in 96 well plates at 5000 cells/well one day prior to compound dosing and infection. The antiviral activity of each compound was measured in triplicate. Compounds were added directly to the cell cultures in serial 3-fold dilutions using the HP300 digital dispenser (Hewlett Packard, Palo Alto, CA) immediately prior to infection. The plates were transferred to BSL-2 containment and 100 μL of 1/4000 dilution of HRV14 virus stock was added to each well containing cells and serially diluted compounds. Each plate included 6 wells of infected untreated cells and 6 wells of cells containing 5 μM Rupintrivir that served as 0% and 100% virus inhibition control, respectively. Following the infection, test plates were incubated for 96 h in a tissue culture incubator set to 37° C./5% CO2. Following incubation, the H1-HeLa cells were removed from incubation and allowed to equilibrate to 25° C. Cell viability was determined by removing 100 μL of culture medium and adding 100 μL of Cell-Titer Glo viability reagent. The mixtures were incubated on a shaker for 10 minutes at 25° C., and the luminescence signal was quantified on an Envision luminescence plate reader.

HRV1a = test: HRV1A HeLa EC50; type: cell-based, human rhinovirus; details: Human rhinovirus sp., HRV1A, HeLa, 96 h, read-out: HRV1A HeLa EC50
Protocol: as §1, with “HRV1a” for “HRV14”

RSV A2 = test: RSV NHBE EC50, RSV A2 antiviral assay; type: cell-based; details: human respiratory syncytial virus, 96 h; RSV A2 in NHBE cells, 4 days
Protocol: Normal human bronchial epithelial (NHBE) cells were purchased from Lonza (Walkersville, MD, Cat #CC-2540) and cultured in Bronchial Epithelial Growth Media (BEGM) (Lonza, Walkersville, MD, Cat #CC-3170). The cells were passaged 1-2 times per week to maintain <80% confluency. The NHBE cells were discarded after 6 passages in culture.
To conduct the RSV A2 antiviral assay, NHBE cells were plated in 96-well plates at a density of 7,500 cells per well in BEGM and allowed to attach overnight at 37° C. Following attachment, 100 μL of cell culture media was removed and 3-fold serially diluted compound was added using a Hewlett-Packard D300 Digital Dispenser. The final concentration of DMSO was normalized to 0.05%. Following compound addition, the NHBE cells were infected by the addition of 100 μL of RSV A2 at a titer of 1×10^4.5 tissue culture infectious doses/mL in BEGM and then incubated at 37° C. for 4 days. The NHBE cells were then allowed to equilibrate to 25° C. and cell viability was determined by removing 100 μL of culture medium and adding 100 μL of Cell-Titer Glo viability reagent. The mixtures were incubated for 10 minutes at 25° C., and the luminescence signal was quantified on an Envision luminescence plate reader.

HEp-2 cytotoxicity assay = type: cell-based; details: human, HEp-2 cells (uninfected), 4-5 days
Protocol: (§2) Cytotoxicity of the compound of Formula I and compounds 1, 2, and 6 was determined in uninfected cells using the cell viability reagent in a similar fashion as described before for other cell types (Cihlar et al., Antimicrob Agents Chemother. 2008, 52(2):655-65.). HEp-2 (1.5×10^3 cells/well) and MT-4 (2×10^3 cells/well) cells were plated in 384-well plates and incubated with the appropriate medium containing 3-fold serially diluted compound ranging from 15 nM to 100,000 nM. Cells were cultured for 4-5 days at 37° C. Following the incubation, the cells were allowed to equilibrate to 25° C., and cell viability was determined by adding Cell-Titer Glo viability reagent. The mixture was incubated for 10 min, and the luminescence signal was quantified using an Envision plate reader. Untreated cell and cells treated at 2 μM puromycin (Sigma, St. Louis, MO) serve as 100% and 0% cell viability control, respectively.

in vitro = in vitro ADME; details: human, plasma, 37° C., up to 4 h, read-out: Hum Plasma t1/2
Protocol: For plasma stability, the compounds were incubated at 2 μM in cynomolgus monkey or human plasma for up to 4 h at 37° C. At desired time points, an aliquot from the incubation was quenched by addition of 9 volumes of 100% acetonitrile supplemented with internal standard. Following the last collection, samples were centrifuged at 3000 g for 30 min and supernatants were transferred to a new plate containing an equal volume of water for analysis by liquid chromatography coupled to triple quadrupole mass spectrometry (LC-MS/MS). Data (analyte to internal standard peak area ratio) were plotted on a semi log scale and fitted using an exponential fit. The half-life (T1/2) was determined assuming first order kinetics.

MT-4 cytotoxicity assay = type: cell-based; details: human, MT-4 cells (uninfected), 4-5 days, read-out: CC50 MT4
Protocol: as §2

[1] = Stability assay in human hepatic S9 fractions; type: in vitro ADME; details: 37° C., NADPH and UDPGA, read-out: Hum HepS9 t1/2
Protocol: For S9 stability, the compounds were incubated at 2 μM in cynomolgus monkey or human hepatic S9 fractions for up to 90 min at 37° C. in the presence of NADPH and UDPGA (Phase I and Phase II cofactor, Sigma-Aldrich). At desired time points following compound addition, samples were quenched with 9 volumes of an aqueous solution containing internal standard, 50% acetonitrile and 25% methanol. Sample plates were centrifuged at 3000 g for 30 min, and 10 μL of the resulting solution was analyzed by LC-MS/MS. Data (analyte to internal standard peak area ratio) were plotted on a semi log scale and fitted using an exponential fit. The half-life (T1/2) was determined assuming first order kinetics.

`CC(C)OC(=O)[C@H](C)NP(=O)(OC[C@@]1(C#N)O[C@@H](c2ccc3c(N)ncnn23)[C@H](O)[C@@H]1O)Oc1ccccc1` (stereo partly drawn) [Compound 3, isopropyl ((((2R,3S,4R,5S)-5-(4-aminopyrrolo[2,1-f][1,2,4]triazin-7-yl)-2-cyano-3,4-dihydroxytetrahydrofuran-2-yl)methoxy)(phenoxy)phosphoryl)-L-alaninate] gave an EC50 (HRV16) of 1420 nM, an EC50 (RSV strain A2) of 463 nM and an EC50 (HRV14) of 1810 nM. For the same compound, the EC50 (HRV1a) was 735 nM and the EC50 (RSV A2) was 1150 nM.
`CCC(CC)OC(=O)[C@H](C)NP(=O)(OC[C@@]1(C#N)O[C@@H](c2ccc3c(N)ncnn23)[C@H](O)[C@@H]1O)Oc1ccccc1` (stereo partly drawn) [Compound 5, (2S)-pentan-3-yl 2-(((((2R,3S,4R,5S)-5-(4-aminopyrrolo[2,1-f][1,2,4]triazin-7-yl)-2-cyano-3,4-dihydroxytetrahydrofuran-2-yl)methoxy)(phenoxy)phosphoryl)amino)propanoate] gave an EC50 (HRV16) of 3130 nM, an EC50 (RSV strain A2) of 1740 nM and an EC50 (HRV14) of 3430 nM. It also gave an EC50 (HRV1a) of 1620 nM and an EC50 (RSV A2) of 1240 nM.
`C[C@H](N[P@@](=O)(OC[C@@]1(C#N)O[C@@H](c2ccc3c(N)ncnn23)[C@H](O)[C@@H]1O)Oc1ccccc1)C(=O)OC1CCCCC1` (single isomer, unassigned) [Formula Ib] showed an EC50 (HRV16) of 654 nM, an EC50 (RSV strain A2) of 2740 nM and an EC50 (RSV A2) of 630 nM.
`C[C@H](NP(=O)(OC[C@@]1(C#N)O[C@@H](c2ccc3c(N)ncnn23)[C@H](O)[C@@H]1O)Oc1ccccc1)C(=O)OC1CCCCC1` (stereo partly drawn) [Formula Ia, (2S)-cyclohexyl 2-(((((2R,3S,4R,5S)-5-(4-aminopyrrolo[2,1-f][1,2,4]triazin-7-yl)-2-cyano-3,4-dihydroxytetrahydrofuran-2-yl)methoxy)(phenoxy)phosphoryl)amino)propanoate] showed an EC50 (HRV16) of 510 nM, an EC50 (RSV strain A2) of 96 nM and an EC50 (RSV A2) of 76 nM.
Work on `CC(C)OC(=O)[C@H](C)N[P@](=O)(OC[C@@]1(C#N)O[C@@H](c2ccc3c(N)ncnn23)[C@H](O)[C@@H]1O)Oc1ccccc1` [Compound 4, (S)-isopropyl 2-(((S)-(((2R,3S,4R,5S)-5-(4-aminopyrrolo[2,1-f][1,2,4]triazin-7-yl)-2-cyano-3,4-dihydroxytetrahydrofuran-2-yl)methoxy)(phenoxy)phosphoryl)amino)propanoate] yielded an EC50 (HRV16) of 965 nM, an EC50 (RSV strain A2) of 342 nM and an EC50 (RSV A2) of 879 nM.
`CCOC(=O)[C@H](C)N[P@](=O)(OC[C@@]1(C#N)O[C@@H](c2ccc3c(N)ncnn23)[C@H](O)[C@@H]1O)Oc1ccccc1` [Compound 8, ethyl ((S)-(((2R,3S,4R,5S)-5-(4-aminopyrrolo[2,1-f][1,2,4]triazin-7-yl)-2-cyano-3,4-dihydroxytetrahydrofuran-2-yl)methoxy)(phenoxy)phosphoryl)-L-alaninate] gave an EC50 (HRV16) of 678 nM, an EC50 (RSV strain A2) of 91 nM and a CC50 (HEp-2 cytotoxicity assay) greater than 100 µM. It also gave a half-life at 2 μM (in vitro) of 361 min, an EC50 (RSV A2) of 932 nM and a CC50 (MT-4 cytotoxicity assay) of 28.3 µM. The half-life at 2 μM [1] was 2 min.
